Source: patent EP0622358A1, “Phenylglycinamides of 4-imidazolylmethyl-phenyl-acetic acids and their use against hypertension and atherosclerosis” (BAYER AG, priority 1993, dated 1994)

System: glatte Muskelzellen
Assay: Inhibition of proliferation of smooth muscle cells (3H-thymidine incorporation)
Type: cell-based, Ratten
Conditions: half-maximal inhibition of thymidine incorporation induced by 10% FCS; rat aortic smooth muscle cells; read-out: IC₅₀
Experimental: Untersuchung zur Inhibition der Proliferation glatter Muskelzellen durch die erfindungsgemäßen Verbindungen
Zur Feststellung der antiproliferativen Wirkung der Verbindungen werden glatte Muskelzellen verwendet, die aus den Aorten von Ratten durch die Media-Explantat-Technik gewonnen werden [R. Ross, J. Cell. Biol. 50, 172, 1971]. Die Zellen werden in geeigneten Kulturschalen, in der Regel 96-Loch-Platten, ausgesät und für 2 - 3 Tage in Medium 199 mit 7,5% FCS und 7,5% NCS, 2 mM L-Glutamin und 15 mM HEPES, pH 7,4 in 5% CO₂ bei 37°C kultiviert. Danach werden die Zellen durch Serumentzug für 2 - 3 Tage synchronisiert und sodann mit Serum zum Wachstum angeregt. Gleichzeitig werden Testverbindungen zugesetzt. Nach 16 - 20 Stunden wird 1 µCi ³H-Thymidin zugefügt und nach weiteren 4 Stunden der Einbau dieser Substanz in die TCA-präzipitierbare DNA der Zellen bestimmt Zur Bestimmung der IC₅₀₋Werte wird die Wirkstoffkonzentration errechnet, die bei sequentieller Verdünnung des Wirkstoffes halbmaximale Hemmung der durch 10% FCS hervorgerufene Thymidininkorporation bewirkt. Tabelle B

SMILES: CCCCc1nc(Cl)c(C=O)n1Cc1ccc(C(C(=O)NC(C(N)=O)c2ccccc2)C2CCCC2)cc1 (centres unmarked) [Beispiel 1, 2-{2-[4-(2-Butyl-4-chlor-5-formyl-imidazol-1-yl-methyl)phenyl]-2-cyclopentyl}-acetamido-2-phenyl-acetamid]
- IC50: 1000 pM

SMILES: CCCCc1nc(Cl)c(CO)n1Cc1ccc(C(C(=O)NC(C(N)=O)c2ccccc2)C2CCCC2)cc1 (centres unmarked) [Beispiel 6, 2-{2-[4-(2-Butyl-4-chlor-5-hydroxymethyl-imidazol-1-yl-methyl)phenyl]-2-cyclopentyl}acetamido-2-phenyl-acetamid]
- IC50: 200 pM
